According to patent US7902354B2, “Lapachone compounds and methods of use thereof” (ArQule, Inc., priority 2006, dated 2011):
Where a name gives a salt, the structure may show the parent alone.

Legend:
[1] = tested on: NCM-460 normal colon epithelial cells; assay: MTS cell viability assay, NCM-460 normal colon epithelial cells; type: cell-based; conditions: for IC50: Homo sapiens, NCM460, NCM-460, 4 h compound incubation, MTS, read-out: IC50 Values, Normal Cells, Colon NCM-460; for Fold Selectivity (NCM-460/DLD1): ratio of IC50 NCM-460 / DLD1
[2] = tested on: PACA-2 human pancreatic carcinoma cells; assay: MTS cell viability assay, PACA-2 human pancreatic carcinoma cells; type: cell-based; conditions: PACA-2, 4 h compound incubation, MTS, read-out: IC50 Values, Cancerous Cells, Pancreas PACA-2
[3] = tested on: A549 human lung carcinoma cells; assay: MTS cell viability assay, A549 human lung carcinoma cells; type: cell-based; conditions: A549, 4 h compound incubation, MTS, read-out: IC50 Values, Cancerous Cells, Lung A549
[4] = tested on: DLD-1 human colon carcinoma cells; assay: MTS cell viability assay, DLD-1 human colon carcinoma cells; type: cell-based; conditions: DLD-1, 4 h compound incubation, MTS, read-out: IC50 Values, Cancerous Cells, Colon DLD-1
[5] = tested on: K-562 human leukemia cells; assay: MTS cell viability assay, K-562 human leukemia cells; type: cell-based; conditions: K562, K-562, 4 h compound incubation, MTS, read-out: IC50 Values, Cancerous Cells, Leukemia K-562
[6] = tested on: DU-145 human prostate carcinoma cells; assay: MTS cell viability assay, DU-145 human prostate carcinoma cells; type: cell-based; conditions: DU-145, 4 h compound incubation, MTS, read-out: IC50 Values, Cancerous Cells, Prostate DU-145

Row | melting point [°C] | IC50 [2] [µM] | IC50 [3] [µM] | IC50 [4] [µM] | IC50 [5] [µM] | IC50 [6] [µM] | SMILES | IC50 [1] [µM] | Fold Selectivity (NCM-460/DLD1) [1]
1 | 88 to 89 | – | – | – | – | – | COc1ccc2c(c1)C1=C(SCC3(CCN(C(=O)Oc4cccc(C(F)(F)F)c4)CC3)O1)C(=O)C2=O | – | –
2 | 186 to 187 | – | – | – | – | – | CC(O)(Cc1ccccc1)CN1CCC2(CC1)CSC1=C(O2)c2ccccc2C(=O)C1=O (stereo not shown) | – | –
3 | 150 to 152 | – | – | – | – | – | O=C1C(=O)c2ccc(Br)cc2C2=C1SCC1(CCN(C[C@H](O)COc3ccc(Cl)cc3)CC1)O2 | – | –
4 | 94 to 97 | – | – | – | – | – | CC(C)(C)c1ccc(OC[C@@H](O)CN2CCC3(CC2)CSC2=C(O3)c3cc(Cl)ccc3C(=O)C2=O)cc1 | – | –
5 | 188 to 190 | – | – | – | – | – | COc1ccc2c(c1)C(=O)C(=O)C1=C2OC2(CCN(C[C@H](O)COc3ccc(C(C)(C)C)cc3)CC2)CS1 | – | –
6 | 80 to 81 | – | – | – | – | – | COc1ccc2c(c1)C1=C(SCC3(CCN(C[C@H](O)COc4ccc(F)cc4)CC3)O1)C(=O)C2=O | – | –
7 | 111 to 112 | – | – | – | – | – | O=C1C(=O)c2ccc(-c3ccccc3)cc2C2=C1SCC1(CCN(C[C@@H](O)COc3ccc(Cl)cc3)CC1)O2 | – | –
8 | 77 to 79 | – | – | – | – | – | O=C1C(=O)c2ccc(F)cc2C2=C1SCC1(CCN(C[C@@H](O)Cc3ccccc3)CC1)O2 | – | –
9 | 173 to 180 | – | – | – | – | – | O=C1C(=O)c2ccccc2C2=C1SCC1(CCN(C(=O)NS(=O)(=O)c3ccc(F)cc3)CC1)O2 | – | –
10 | 155 to 165 | – | – | – | – | – | O=C1C(=O)c2ccccc2C2=C1SCC1(CCN(C(=O)NS(=O)(=O)c3ccccc3)CC1)O2 | – | –
11 | 183 to 187 | – | – | – | – | – | O=C1C(=O)c2ccccc2C2=C1SCC1(CCC(c3ccccc3)CC1)O2 (stereo not shown) | – | –
12 | 125 to 127 | – | – | – | – | – | O=C1C(=O)c2ccc(-c3ccccc3C(F)(F)F)cc2C2=C1SCC1(CCNCC1)O2 | – | –
13 | 240 to 241 | – | – | – | – | – | O=C1C(=O)c2ccc(-c3ccccc3)cc2C2=C1SCC1(CCN(C(=O)c3cccc(Cl)c3)CC1)O2 | – | –
14 | 110 to 113 | – | – | – | – | – | CC(C)(C)OC(=O)N1CCC(CC(=O)N2CCC3(CC2)CSC2=C(O3)c3ccccc3C(=O)C2=O)CC1 | – | –
15 | – | 1.52 | 7.69 | 1.45 | 1.87 | 3.86 | O=C1C(=O)c2ccccc2C2=C1SCC1(CCN(C(=O)c3ccco3)CC1)O2 [Compound 39, 1′-(2-furoyl)spiro[naphtho[1,2-b][1,4]oxathiine-2,4′-piperidine]-5,6-dione] | 6.35 | 4.4
16 | – | 2.37 | 11.8 | 1.55 | 1.5 | 4.12 | O=C1C(=O)c2ccccc2C2=C1SCC1(CCN(C(=O)CSc3ccccc3)CC1)O2 [Compound 48, 1′-[(phenylthio)acetyl]spiro[naphtho[1,2-b][1,4]oxathiine-2,4′-piperidine]-5,6-dione] | 5.7 | 3.7

The remaining lines, values behind:

Row | SMILES | melting point [°C] | IC50 [2] [µM] | IC50 [3] [µM] | IC50 [4] [µM] | IC50 [5] [µM] | IC50 [6] [µM] | IC50 [1] [µM] | Fold Selectivity (NCM-460/DLD1) [1]
17 | CCCC(C)N1CCC2(CC1)CSC1=C(O2)c2ccccc2C(=O)C1=O (stereo not shown) | 109 to 111 | – | – | – | – | – | – | –
18 | CC(C)(C)c1ccc(OC[C@@H](O)CN2CCCC3(CSC4=C(O3)c3ccccc3C(=O)C4=O)C2)cc1 (stereo partly shown) | 90 to 92 | – | – | – | – | – | – | –
19 | O=C1C(=O)c2ccccc2C2=C1SCC1(CCN(C[C@H](O)COc3ccc(C(=O)OCc4ccccc4)cc3)CC1)O2 | 83 to 84 | – | – | – | – | – | – | –
20 | CC(C)(C)OC(=O)N1CCC2(CC1)CSC1=C(O2)c2cc(-c3ccc(C(F)(F)F)cc3)ccc2C(=O)C1=O | 238 to 240 | – | – | – | – | – | – | –
21 | CC(C)(C)OC(=O)N1CCC2(CC1)CSC1=C(O2)c2cc(-c3ccccc3C(F)(F)F)ccc2C(=O)C1=O | 223 to 225 | – | – | – | – | – | – | –
22 | O=C1C(=O)c2ccccc2C2=C1SCC1(CCC3(CC1)OCCO3)O2 | 251 to 252 | – | – | – | – | – | – | –
23 | Cl.Cl.O=C1C(=O)c2ccc(N3CCOCC3)cc2C2=C1SCC1(CCNCC1)O2 | > 300 | – | – | – | – | – | – | –
24 | O=C1C(=O)c2ccccc2C2=C1SCC1(CCN(C(=O)Cc3ccc(Cl)cc3)CC1)O2 | 120 to 125 | – | – | – | – | – | – | –
25 | O=C1C(=O)c2ccccc2C2=C1SCC1(CCN(C(=O)/C=C/c3ccccc3Cl)CC1)O2 | 110 to 115 | – | – | – | – | – | – | –
26 | O=C1C(=O)c2ccccc2C2=C1SCC1(CCN(C(=O)c3cn4c5c(cccc35)CCC4)CC1)O2 | 265 to 267 | – | – | – | – | – | – | –
27 | CN(C)S(=O)(=O)N1CCC2(CC1)CSC1=C(O2)c2ccccc2C(=O)C1=O | 215 to 218 | – | – | – | – | – | – | –
28 | O=C(NC1CCC2(CC1)CSC1=C(O2)c2ccccc2C(=O)C1=O)Oc1cccc(C(F)(F)F)c1 (stereo not shown) (as salt: hydrochloride) | 198 to 199 | – | – | – | – | – | – | –
29 | O=C1C(=O)c2ccccc2C2=C1SCC1(CCC(NC(=O)c3cccc(C(F)(F)F)c3)CC1)O2 (stereo not shown) (as salt: hydrochloride) | 266 to 267 | – | – | – | – | – | – | –
30 | COc1ccc2c(c1)C1=C(SCC3(CCNCC3)O1)C(=O)C2=O [Compound 20, 9-methoxyspiro[naphtho[1,2-b][1,4]oxathiine-2,4′-piperidine]-5,6-dione] | – | 27.5 | > 100 | 49.5 | 48 | 60.5 | 61.7 | 1.2
31 | Cc1noc(C)c1C(=O)N1CCC2(CC1)CSC1=C(O2)c2ccccc2C(=O)C1=O [Compound 40, 1′-[(3,5-dimethylisoxazol-4-yl)carbonyl]spiro[naphtho[1,2-b][1,4]oxathiine-2,4′-piperidine]-5,6-dione] | – | 8.39 | 15.5 | 4.09 | 3.92 | 14.4 | 10.2 | 2.5
32 | Cc1cc(C(=O)N2CCC3(CC2)CSC2=C(O3)c3ccccc3C(=O)C2=O)c(C)o1 [Compound 41, 1′-(2,5-dimethyl-3-furoyl)spiro[naphtho[1,2-b][1,4]oxathiine-2,4′-piperidine]-5,6-dione] | – | 1.47 | 4.84 | 1.58 | 1.44 | 3.1 | 5.8 | 3.7
33 | Cc1cc(C(=O)N2CCC3(CC2)CSC2=C(O3)c3ccccc3C(=O)C2=O)n(C)n1 [Compound 42, 1′-[(1,3-dimethyl-1H-pyrazol-5-yl)carbonyl]spiro[naphtho[1,2-b][1,4]oxathiine-2,4′-piperidine]-5,6-dione] | – | 5.12 | 43 | 8.95 | 5.64 | 12.7 | 12.6 | 1.4
34 | O=C1C(=O)c2ccccc2C2=C1SCC1(CCN(C(=O)c3ccoc3)CC1)O2 [Compound 43, 1′-(3-furoyl)spiro[naphtho[1,2-b][1,4]oxathiine-2,4′-piperidine]-5,6-dione] | – | 2.14 | 9.96 | 2.26 | 2.77 | 4.12 | 9.44 | 4.2
35 | Cc1cc(C(=O)N2CCC3(CC2)CSC2=C(O3)c3ccccc3C(=O)C2=O)nn1C [Compound 45, 1′-[(1,5-dimethyl-1H-pyrazol-3-yl)carbonyl]spiro[naphtho[1,2-b][1,4]oxathiine-2,4′-piperidine]-5,6-dione] | – | 4.49 | 19.7 | 4 | 3.95 | 4.3 | 9.84 | 2.5
36 | CN(C)c1cccc(C(=O)N2CCC3(CC2)CSC2=C(O3)c3ccccc3C(=O)C2=O)c1 [Compound 46, 1′-[3-(dimethylamino)benzoyl]spiro[naphtho[1,2-b][1,4]oxathiine-2,4′-piperidine]-5,6-dione] | – | 4.24 | > 100 | 5.26 | 9.61 | 5.03 | 28.6 | 5.4
37 | O=C1C(=O)c2ccccc2C2=C1SCC1(CCN(C(=O)c3ccccc3I)CC1)O2 [Compound 49, 1′-(2-iodobenzoyl)spiro[naphtho[1,2-b][1,4]oxathiine-2,4′-piperidine]-5,6-dione] | – | 2.39 | 5.58 | 2.87 | 1.8 | 4.11 | 7.72 | 2.7
38 | O=C1C(=O)c2ccccc2C2=C1SCC1(CCN(C(=O)C(Cl)c3ccccc3)CC1)O2 (stereo not shown) [Compound 50, 1′-[chloro(phenyl)acetyl]spiro[naphtho[1,2-b][1,4]oxathiine-2,4′-piperidine]-5,6-dione] | – | 1.42 | 5.41 | 1.54 | 1.44 | 3.55 | 7.14 | 4.6
39 | O=C1C(=O)c2ccccc2C2=C1SCC1(CCN(C(=O)c3cc4ccccc4s3)CC1)O2 [Compound 51, 1′-(1-benzothien-2-ylcarbonyl)spiro[naphtho[1,2-b][1,4]oxathiine-2,4′-piperidine]-5,6-dione] | – | 4.28 | > 100 | 11.6 | 10.3 | 5.52 | 33 | 2.8
40 | COC(=O)C(=O)N1CCC2(CC1)CSC1=C(O2)c2ccccc2C(=O)C1=O [Compound 52, methyl (5,6-dioxo-5,6-dihydro-1′H-spiro[naphtho[1,2-b][1,4]oxathiine-2,4′-piperidine]-1′-yl)(oxo)acetate] | – | 3.92 | 14.4 | 4.15 | 2.71 | 4.49 | 10.1 | 2.4
